Laboratory results as given in paper PMC12015381, “Target Agnostic Photoaffinity Labelling by Sulfonylhydrazones” (Angewandte Chemie (International Ed. in English), 2025).

Tests used:
[1] = molecular target: T1, STAT5b (Signal transducer and activator of transcription 5b) (Homo sapiens, UniProt P51692); assay: covalent photolabelling by tryptic digestion and LC-MS/MS; STAT5b inhibition assay with irradiation (no inhibition under […] without irradiation); assay type: binding
T1 sequence (P51692 1-787): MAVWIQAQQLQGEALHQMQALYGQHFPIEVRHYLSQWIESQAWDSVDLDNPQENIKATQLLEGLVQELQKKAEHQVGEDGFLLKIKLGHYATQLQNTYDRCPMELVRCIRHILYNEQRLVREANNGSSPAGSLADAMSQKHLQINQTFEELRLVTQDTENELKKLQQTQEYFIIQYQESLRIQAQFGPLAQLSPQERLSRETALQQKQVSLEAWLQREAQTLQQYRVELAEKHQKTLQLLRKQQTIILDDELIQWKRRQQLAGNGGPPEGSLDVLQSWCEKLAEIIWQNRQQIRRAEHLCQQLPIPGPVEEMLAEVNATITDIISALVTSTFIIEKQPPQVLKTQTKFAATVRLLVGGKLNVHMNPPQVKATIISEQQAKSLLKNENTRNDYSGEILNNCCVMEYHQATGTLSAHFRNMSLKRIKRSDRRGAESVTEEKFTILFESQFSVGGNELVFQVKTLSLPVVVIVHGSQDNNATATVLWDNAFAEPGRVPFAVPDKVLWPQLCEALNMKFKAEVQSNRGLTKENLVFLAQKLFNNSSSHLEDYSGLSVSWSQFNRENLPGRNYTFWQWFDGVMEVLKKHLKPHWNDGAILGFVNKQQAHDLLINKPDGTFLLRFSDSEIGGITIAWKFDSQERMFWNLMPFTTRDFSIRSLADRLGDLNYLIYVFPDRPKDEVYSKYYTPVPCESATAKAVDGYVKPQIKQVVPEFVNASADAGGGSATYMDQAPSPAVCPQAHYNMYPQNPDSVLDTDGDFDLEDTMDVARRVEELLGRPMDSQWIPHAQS

[2] = molecular target: acetylcholine esterase (AChE) (Electrophorus electricus, UniProt O42275); assay: biochemical enzyme inhibition assay after photoactivation at […] nm (no inhibition without irradiation); covalent labelling by enzymatic digestion and MS
Chain of acetylcholine esterase (AChE) (O42275 24-633): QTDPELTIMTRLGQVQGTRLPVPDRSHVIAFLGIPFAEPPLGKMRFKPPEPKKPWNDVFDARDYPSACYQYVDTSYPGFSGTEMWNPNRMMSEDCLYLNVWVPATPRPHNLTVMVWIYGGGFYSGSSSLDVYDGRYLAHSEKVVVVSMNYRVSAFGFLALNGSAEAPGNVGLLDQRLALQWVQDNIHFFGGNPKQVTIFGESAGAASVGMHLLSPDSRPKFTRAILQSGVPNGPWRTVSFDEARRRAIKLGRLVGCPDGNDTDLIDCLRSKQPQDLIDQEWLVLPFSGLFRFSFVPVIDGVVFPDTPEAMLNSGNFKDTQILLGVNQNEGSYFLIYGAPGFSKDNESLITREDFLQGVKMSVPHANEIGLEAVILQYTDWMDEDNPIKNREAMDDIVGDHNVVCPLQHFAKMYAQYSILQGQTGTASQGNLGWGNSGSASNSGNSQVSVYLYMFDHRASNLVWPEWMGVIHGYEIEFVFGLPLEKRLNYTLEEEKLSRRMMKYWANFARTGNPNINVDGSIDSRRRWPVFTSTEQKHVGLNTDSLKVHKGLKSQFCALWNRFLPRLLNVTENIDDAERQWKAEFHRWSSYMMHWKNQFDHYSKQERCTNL

O=c1c(/C=N/NS(=O)(=O)c2cccnc2)coc2ccccc12 [compound 10, 10]
IC50 [1]: 24.1 µM

COc1cc2c(cc1OC)C(=NNS(=O)(=O)c1ccc(C)cc1)C(CC1CCN(Cc3ccccc3)CC1)C2 (centres unmarked) [compound 12, donepezil-tosylhydrazone]
IC50 [2]: 379 nM
